Assays:
Type in all cases: in vivo
[1] = system: blackgrass (Alopecurus myosuroides); assay: Test C postemergence, visual plant response rating
Summary of the method: (§1)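 Visual injury on a 0 (no effect) to 100 (complete control) scale versus untreated controls, scored approximately 10 d after treatment under greenhouse conditions. Treatments used surfactant-containing non-phytotoxic solvent formulations, sprayed onto loam–sand soil preemergence or onto one- to two-leaf plants 2–10 cm tall postemergence.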

[2] = system: Italian ryegrass (Lolium mutiflorum); assay: Test C postemergence, visual plant response rating
Summary of the method: as §1

[3] = system: barnyardgrass (Echinochloa crus-galli); assay: Test C postemergence, visual plant response rating
Summary of the method: as §1

corn (Zea mays) = assay: Test C postemergence, visual plant response rating
Summary of the method: as §1

[4] = system: foxtail, giant (giant foxtail, Setaria faberi); assay: Test C postemergence, visual plant response rating
Summary of the method: as §1

kochia (Bassia scoparia) [5] = assay: Test C postemergence, visual plant response rating
Summary of the method: as §1

[6] = system: galium (catchweed bedstraw, Galium aparine); assay: Test C postemergence, visual plant response rating
Summary of the method: as §1

[7] = system: pigweed (Amaranthus retroflexus); assay: Test C postemergence, visual plant response rating
Summary of the method: as §1

[8] = system: ragweed (common ragweed, Ambrosia artemisiifolia); assay: Test C postemergence, visual plant response rating
Summary of the method: as §1

[9] = system: wheat (Triticum aestivum); assay: Test C postemergence, visual plant response rating
Summary of the method: as §1

[10] = system: barnyardgrass (Echinochloa crus-galli); assay: Test D flooded paddy test, visual plant response rating; settings: 250 g ai/ha, scale 0 to 100 (0 no effect, 100 complete control), 13 to 15 d
Summary of the method: (§2)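 Rating is visual, on a 0 (no effect) to 100 (complete control) scale versus controls, taken 13 to 15 d after treatment in a greenhouse. Treatment went into paddy water kept 3 cm above the soil surface, with plants at the 2-leaf stage.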

[11] = system: sedge umbrella (small-flower umbrella sedge, Cyperus difformis); assay: as above; settings: 250 g ai/ha, scale 0 to 100 (0 no effect, 100 complete control), 13 to 15 d
Summary of the method: as §2

rice (Oryza sativa) = assay: as above; settings: 250 g ai/ha, scale 0 to 100 (0 no effect, 100 complete control), 13 to 15 d
Summary of the method: as §2

[12] = system: duck salad (Heteranthera limosa); assay: as above; settings: 250 g ai/ha, scale 0 to 100 (0 no effect, 100 complete control), 13 to 15 d
Summary of the method: as §2

[13] = system: Italian ryegrass (Lolium mutiflorum); assay: Test C preemergence, visual plant response rating; settings: Test C, 0 is no effect, 100 is complete control
Summary of the method: as §1

[14] = system: barnyardgrass (Echinochloa crus-galli); assay: Test C preemergence, visual plant response rating; settings: Test C, 0 is no effect, 100 is complete control
Summary of the method: as §1

[15] = system: foxtail, giant (giant foxtail, Setaria faberi); assay: Test C preemergence, visual plant response rating; settings: Test C, 0 is no effect, 100 is complete control
Summary of the method: as §1

kochia (Bassia scoparia) [16] = assay: Test C preemergence, visual plant response rating; settings: Test C, 0 is no effect, 100 is complete control
Summary of the method: as §1

[17] = system: pigweed (Amaranthus retroflexus); assay: Test C preemergence, visual plant response rating; settings: Test C, 0 is no effect, 100 is complete control
Summary of the method: as §1

[18] = system: ragweed (common ragweed, Ambrosia artemisiifolia); assay: Test C preemergence, visual plant response rating; settings: Test C, 0 is no effect, 100 is complete control
Summary of the method: as §1

[19] = Test C, postemergence, 125 g ai/ha

C#CCON=C(c1cccc(OCC(F)(F)F)c1)c1c(O)c(C)nn(C)c1=O [Compound 197]
20: Ryegrass, Italian plant response rating (0 to 100 scale) [2, 19] | Foxtail, Giant plant response rating (0 to 100 scale) [4, 19] | Ryegrass, Italian plant response rating (0 to 100 scale) ([13]; 125 g ai/ha) | Pigweed plant response rating (0 to 100 scale) ([17]; 125 g ai/ha)
0: Blackgrass plant response rating (0 to 100 scale) ([1]; Postemergence, 31 g ai/ha) | Ryegrass, Italian plant response rating (0 to 100 scale) ([2]; Postemergence, 31 g ai/ha) | Barnyardgrass plant response rating (0 to 100 scale) ([3]; Postemergence, 31 g ai/ha) | Corn plant response rating (0 to 100 scale) (corn (Zea mays); Postemergence, 31 g ai/ha) | Corn plant response rating (0 to 100 scale) (corn (Zea mays); [19]) | Foxtail, Giant plant response rating (0 to 100 scale) ([4]; Postemergence, 31 g ai/ha) | Kochia plant response rating (0 to 100 scale) (kochia (Bassia scoparia) [5]; Postemergence, 31 g ai/ha) | Kochia plant response rating (0 to 100 scale) (kochia (Bassia scoparia) [5]; [19]) | Galium plant response rating (0 to 100 scale) ([6]; Postemergence, 31 g ai/ha) | Ragweed plant response rating (0 to 100 scale) ([8]; Postemergence, 31 g ai/ha) | Ragweed plant response rating (0 to 100 scale) [8, 19] | Wheat plant response rating (0 to 100 scale) ([9]; Postemergence, 31 g ai/ha) | Wheat plant response rating (0 to 100 scale) [9, 19] | Plant response rating, Barnyardgrass (Flood) [10] | Plant response rating, Sedge, Umbrella (Flood) [11] | Plant response rating, Rice (Flood) (rice (Oryza sativa)) | Plant response rating, Ducksalad (Flood) [12] | Ryegrass, Italian plant response rating (0 to 100 scale) ([13]; 31 g ai/ha) | Barnyardgrass plant response rating (0 to 100 scale) ([14]; 31 g ai/ha) | Barnyardgrass plant response rating (0 to 100 scale) ([14]; 125 g ai/ha) | Foxtail, Giant plant response rating (0 to 100 scale) ([15]; 31 g ai/ha) | Kochia plant response rating (0 to 100 scale) (kochia (Bassia scoparia) [16]; 31 g ai/ha) | Kochia plant response rating (0 to 100 scale) (kochia (Bassia scoparia) [16]; 125 g ai/ha) | Pigweed plant response rating (0 to 100 scale) ([17]; 31 g ai/ha) | Ragweed plant response rating (0 to 100 scale) ([18]; 31 g ai/ha) | Ragweed plant response rating (0 to 100 scale) ([18]; 125 g ai/ha)
30: Blackgrass plant response rating (0 to 100 scale) [1, 19] | Galium plant response rating (0 to 100 scale) [6, 19] | Pigweed plant response rating (0 to 100 scale) [7, 19]
10: Barnyardgrass plant response rating (0 to 100 scale) [3, 19] | Pigweed plant response rating (0 to 100 scale) ([7]; Postemergence, 31 g ai/ha) | Foxtail, Giant plant response rating (0 to 100 scale) ([15]; 125 g ai/ha)

Source: US20210045385A1, “PYRIDAZINONE-SUBSTITUTED KETOXIMES AS HERBICIDES” (FMC Corporation, priority 2018, published 2021)
